Data published in the NIST ThermoML archive (doi:10.1021/je7004006).

Experiment: molar heat capacity at constant pressure
Details: 101.33 kPa, Crystal, Small (less than 1 g) adiabatic calorimetry

O=C([O-])c1cccnc1.O=C([O-])c1cccnc1.O=C([O-])c1cccnc1.[Cr+3] [chromium nicotinate]
Details	molar heat capacity at constant pressure [J/K/mol]
78.3 K	123.81
79.58 K	125.36
80.78 K	127.92
83.27 K	130.33
85.75 K	132.64
87.67 K	134.61
88.87 K	136.08
90.15 K	137.63
92 K	139.67
93.27 K	141.41
94.62 K	142.98
95.9 K	144.85
97.32 K	146.89
98.81 K	148.83
100.39 K	151.39
102.33 K	154.15
104.42 K	157.04
106.52 K	159.91
108.56 K	162.72
110.57 K	165.32
112.55 K	168.16
114.51 K	171.37
116.44 K	174.23
118.51 K	177.09
120.7 K	180.42
122.86 K	183.21
125 K	186.13
127.12 K	189.86
129.2 K	192.42
131.27 K	194.83
133.29 K	197.19
135.34 K	199.39
137.35 K	202.21
139.34 K	205.13
141.27 K	208.55
143.29 K	211.67
145.18 K	214.31
147.24 K	217.25
149.26 K	220.52
151.28 K	222.96
153.41 K	226.31
155.54 K	229.13
157.62 K	231.64
159.7 K	235.03
161.75 K	238.11
163.85 K	240.81
165.85 K	243.11
167.87 K	246.05
169.89 K	248.77
171.91 K	251.87
173.84 K	254.46
175.86 K	257.44
177.79 K	260.13
179.73 K	262.72
181.66 K	265.17
183.6 K	268.44
185.62 K	271.07
187.71 K	274.19
189.73 K	277.14
191.82 K	280.35
193.92 K	283.85
196.02 K	286.68
198.11 K	289.66
200.29 K	293.01
202.31 K	295.75
204.32 K	298.67
206.42 K	301.71
208.43 K	304.98
210.45 K	308.04
212.47 K	310.72
214.4 K	313.38
216.42 K	316.97
218.35 K	320.03
220.29 K	324.12
222.3 K	325.43
224.24 K	328.85
226.09 K	332.72
228.83 K	337.34
231.74 K	341.35
234.72 K	345.07
237.78 K	349.99
241.01 K	354.61
244.07 K	360.78
247.13 K	364.57
250.28 K	369.63
253.26 K	373.95
256.33 K	378.71
259.39 K	383.32
262.45 K	388.08
265.52 K	392.41
268.5 K	397.46
271.49 K	402.07
274.55 K	406.39
277.77 K	410.55
280.84 K	415.32
283.98 K	420.08
287.05 K	425.14
290.11 K	429.31
293.25 K	432.73
296.24 K	436.89
299.14 K	441.06
302.2 K	445.38
305.27 K	449.99
308.25 K	453.86
311.39 K	458.92
314.62 K	464.13
317.68 K	468.44
320.91 K	472.31
324.13 K	476.78
327.12 K	480.35
329.78 K	484.81
332.44 K	488.54
335.1 K	492.26
337.84 K	495.98
340.5 K	499.71
343.24 K	503.86
346.06 K	507.44
348.97 K	511.45
351.79 K	514.88
354.53 K	518.75
357.43 K	523.81
360.34 K	528.42
363 K	532.73
365.9 K	536.45
368.64 K	539.88
371.37 K	543.64
374.08 K	547.89
376.98 K	552.51
379.69 K	556.21
382.38 K	559.42
385.12 K	562.83
387.85 K	566.51
390.52 K	569.91
